Measurements: patent US5023275A, “S-substituted beta-thioacrylamide biocides and fungicides” (Rohm and Haas Company, priority 1990, dated 1991)
Converted amounts (≈) assume the structure as drawn. Where two headings read alike, the source gives them in different places.

Key:
[1] = system: Aspergillus niger (A.n); assay: Alternate Minimum Inhibitory Concentration test, A.n (Table 7); type: cell-based; conditions: TSB, 72 hours, 30° C.
[2] = system: Aureobasidium pullulans (A.p); assay: Alternate Minimum Inhibitory Concentration test, A.p (Table 7); type: cell-based; conditions: TSB, 72 hours, 30° C.
[3] = system: Candida albicans (C.alb); assay: Alternate Minimum Inhibitory Concentration test, C.alb (Table 7); type: cell-based; conditions: TSB, 72 hours, 30° C.
[4] = system: Escherichia coli (E.c); assay: Alternate Minimum Inhibitory Concentration test, E.c (Table 7); type: cell-based; conditions: TSB, 72 hours, 30° C.
[5] = system: Pseudomonas aerugenosa (Ps.ae); assay: Alternate Minimum Inhibitory Concentration test, Ps.ae (Table 7); type: cell-based; conditions: TSB, 72 hours, 30° C.
[6] = system: Pseudomonas fluorescens (Ps.fl); assay: Alternate Minimum Inhibitory Concentration test, Ps.fl (Table 7); type: cell-based; conditions: TSB, 72 hours, 30° C.
Description: From this solution, 100 μl was transferred to the first row of two microtiter plate columns. […] Inoculation was accomplished by diluting a 24 hr Ps fl culture, four mls per 36 mls of phosphate buffer solution. A Dynatech autoinoculator was used to transfer 1.5 μl of this cell suspension to the microtiter plates.

[7] = system: Staphylococcus aureus (S.a); assay: Alternate Minimum Inhibitory Concentration test, S.a (Table 7); type: cell-based; conditions: TSB, 72 hours, 30° C.
[8] = system: Pseudoperonospora cubensis; conditions: in vivo
[9] = system: Piricularia oryzae; type: in vivo; conditions: rice, 7 to 8 days after inoculation
[10] = system: Pellicularia filamentosa (f. sp. sasiki); conditions: in vivo
[11] = system: Phytophthora infestans; type: in vivo; conditions: tomato, 4 days after inoculation
[12] = system: Erysiphe graminis (f. sp. tritici); conditions: in vivo
[13] = system: Puccinia graminis (f. sp. tritici Race 15B-2); type: in vivo; conditions: wheat, two weeks
[14] = system: Pseudomonas fluorescens; assay: Speed of Kill (SOK) Test, 4 hours (Table 6); type: cell-based; conditions: Ps. fluorescens in synthetic hard water, 30° C., read-out: SOK: concentration at which compound killed >99.999% of the cells
Text: The Speed of Kill (SOK) Test measures the loss of cell viability in an aqueous suspension of bacterial cells during a four hour period when these cells are contacted with a defined concentration of the test compound in synthetic hard water (SHW). A stock solution or dispersion of the test compound, typically at a concentration of 1%, is made in a 5:3:2 solvent solution of acetone, methanol, and water. The SHW is made by taking one liter of sterile deionized water and adding the following solutions to it:
1. 2 ml of a solution of 31.74 g of MgCl2 and 73.99 g of CaCl2 in 1000 ml. of sterile distilled water which has been heat sterilized.
2. 4 ml of a solution of 56.03 g of NaHCO3 in 1000 ml of water which has been filter sterilized.
The combined solution is then filter sterilized to yield the SHW. A volume of the stock solution is dispensed into the SHW to give an initial test compound starting concentration of 500 ppm.
When the test is ready to be run, each vessel in the dilution series, except the first vessel, contains an equal volume of the SHW mixture with the test compound. The first vessel contains twice the volume of SHW with the starting concentration of test compound. One half of the SHW from the first vessel is transferred to the second vessel. After being mixed, one half the resulting volume is removed from the second vessel and transferred to the third vessel. […]

[15] = system: Pseudomonas fluorescens (Ps.fl); assay: MIC, broth two-fold serial dilution test, Ps.fl (Table 6); type: cell-based; conditions: two-fold serial dilution in broth, 500 to 4 ppm
Text: (§1) A minimum inhibitory concentration (MIC) value is obtained using a broth, two-fold serial dilution test performed as follows: […] A volume of the stock solution is dispensed into culture media to give an initial starting test concentration of 500 ppm compound. When the test is ready to be done, each vessel in the dilution series, except the first vessel, contains an equal volume of compound free broth. The first vessel contains twice the volume of broth with the starting concentration of test compound. One half of the broth from the first vessel is transferred to the second vessel. After being mixed, one half the resulting volume is removed from the second vessel and transferred to the third vessel. […] Each vessel is then inoculated with a cell suspension of the appropriate test organism. Bacteria are grown in broth and fungi on agar […] for a time and at a temperature appropriate to the species being tested. At the end of the growth period, the broth is vortexed to disperse the cells. In the case of fungi, the spores are harvested by pipetting water onto the slant and dislodging the spores with a sterile loop. The cell/spore suspension is standardized by controlling incubation time, temperature, and the volume of the diluent. The suspension is then used to inoculate the vessels containing the broth compound. The vessels are then incubated at the appropriate temperature. […]

[16] = system: Pseudomonas aerugenosa (Ps.ae); assay: MIC, broth two-fold serial dilution test, Ps.ae (Table 6); type: cell-based; conditions: two-fold serial dilution in broth, 500 to 4 ppm
Text: as §1

[17] = system: Escherichia coli (E.c); assay: MIC, broth two-fold serial dilution test, E.c (Table 6); type: cell-based; conditions: two-fold serial dilution in broth, 500 to 4 ppm
Text: as §1

[18] = system: Staphylococcus aureus (S.a); assay: MIC, broth two-fold serial dilution test, S.a (Table 6); type: cell-based; conditions: two-fold serial dilution in broth, 500 to 4 ppm
Text: as §1

[19] = system: Aspergillus niger (A.n); assay: MIC, broth two-fold serial dilution test, A.n (Table 6); type: cell-based; conditions: two-fold serial dilution in broth, 500 to 4 ppm
Text: as §1

[20] = system: Aureobasidium pullulans (A.p); assay: MIC, broth two-fold serial dilution test, A.p (Table 6); type: cell-based; conditions: two-fold serial dilution in broth, 500 to 4 ppm
Text: as §1

[21] = system: Puccinia recondita (f. sp. tritici Races PKB and PLD); conditions: in vivo

Row | Structure (SMILES) | MIC [1] [µg/mL] | MIC [2] [µg/mL] | MIC [3] [µg/mL] | MIC [4] [µg/mL] | MIC [5] [µg/mL] | MIC [6] [µg/mL] | MIC [7] [µg/mL] | % Control CDM [8] [%] | % Control RSB [10] [%] | % Control TLB ([11]; application rate 300 ppm) [%] | % Control WPM [12] [%] | % Control WSR ([13]; application rate 300 ppm) [%] | % Control RB ([9]; application rate 100 ppm) [%] | % Control TLB ([11]; application rate 100 ppm) [%] | % Control RB ([9]; application rate 200 ppm) [%] | also measured
1 | CC(=O)C(S/C=C\C(=O)NCc1ccccc1)C(C)=O [Example 2, N-benzyl-cis-3-thio-(1-acetylpropan-2-on-1-yl)acrylamide] | 125 to 500 (≈ 429 to 1720 µM) | 31 (≈ 106 µM) | 31 to 63 (≈ 106 to 216 µM) | 63 to 125 (≈ 216 to 429 µM) | 500 (≈ 1720 µM) | > 500 | 31 (≈ 106 µM) | 70 | 0 | 0 | 0 | 40 | – | – | – | % Control RB ([9]; application rate 300 ppm): 0%
2 | CC(=O)C(S/C(Cl)=C(/C)C(=O)Nc1ccccc1)C(C)=O [Example 5, N-phenyl-2-methyl-3-chloro-cis-3-thio-(1-acetylpropan-2-on-1-yl)acrylamide] | < 4 | 16 (≈ 49.1 µM) | 16 (≈ 49.1 µM) | < 4 | 16 to 31 (≈ 49.1 to 95.1 µM) | 16 (≈ 49.1 µM) | 8 (≈ 24.6 µM) | 49 | – | – | 0 | – | 50 | 35 | – | MBC [14]: < 4 µg/mL; MIC [15]: < 4 µg/mL; MIC [16]: 8 µg/mL (≈ 24.6 µM); MIC [17]: < 4 µg/mL; MIC [18]: < 4 µg/mL; MIC [19]: < 4 µg/mL; MIC [20]: 32 µg/mL (≈ 98.2 µM); % Control WSR ([13]; application rate 100 ppm): 50%
3 | CC(=O)C(S/C=C(/C)C(=O)Nc1ccc(Cl)cc1)C(C)=O [Example 7, N-(p-chlorophenyl)-2-methyl-cis-3-thio-(1-acetylpropan-2-on-1-yl)acrylamide] | 31 to 63 (≈ 95.1 to 193 µM) | 4 to 8 (≈ 12.3 to 24.6 µM) | 16 (≈ 49.1 µM) | 63 to 125 (≈ 193 to 384 µM) | > 500 | > 500 | 125 (≈ 384 µM) | 0 | 0 | – | 60 | – | 50 | 0 | – | % Control WLR [21]: 50%
4 | CC(=O)C(S/C(Cl)=C\C(=O)Nc1ccc(Cl)cc1)C(C)=O [Example 6, N-(p-chlorophenyl)-3-chloro-cis-3-thio-(1-acetylpropan-2-on-1-yl)acrylamide] | > 500 | – | – | – | – | > 500 | – | 85 | 0 | – | 0 | – | 50 | 0 | – | % Control WLR [21]: 50%
5 | CC(=O)C(S/C=C\C(=O)NCc1ccc(Cl)cc1)C(C)=O [Example 4, N-(p-chlorobenzyl)-cis-3-thio-(1-acetylpropan-2-on-1-yl)-acrylamide] | 31 to 500 (≈ 95.1 to 1530 µM) | 16 (≈ 49.1 µM) | 63 (≈ 193 µM) | 63 (≈ 193 µM) | > 500 | > 500 | 31 (≈ 95.1 µM) | 95 | 0 | 15 | 0 | 30 | – | – | 89 | –
6 | CC(=O)C(S/C=C\C(=O)NCCc1ccccc1)C(C)=O [Example 3, N-(beta-phenethyl)-cis-3-thio-(1-acetylpropan-2-on-1-yl)-acrylamide] | 63 to 500 (≈ 206 to 1640 µM) | 8 to 16 (≈ 26.2 to 52.4 µM) | 31 (≈ 102 µM) | 250 (≈ 819 µM) | > 500 | > 500 | 63 (≈ 206 µM) | 90 | 0 | 20 | 0 | 40 | – | – | 94 | –
7 | CC(=O)C(S/C(Cl)=C(/C)C(=O)Nc1ccc(Cl)cc1)C(C)=O [Example 1, N-(p-Chlorophenyl)-2-methyl-3-chloro-cis-3-thio-(1-acetylpropan-2-on-1-yl)acrylamide] | 4 to 8 (≈ 11.1 to 22.2 µM) | < 4 | < 4 | < 4 | 8 (≈ 22.2 µM) | 4 to 16 (≈ 11.1 to 44.4 µM) | < 4 | 100 | 0 | 90 | 0 | 70 | – | – | 80 | MBC [14]: 32 µg/mL (≈ 88.8 µM); MIC [15]: < 4 µg/mL; MIC [16]: < 4 µg/mL; MIC [17]: < 4 µg/mL; MIC [18]: < 4 µg/mL; MIC [19]: < 4 µg/mL; MIC [20]: < 4 µg/mL
